*1 amine or outer side, *2 acyl side, *3 side chain or, on linkers, in order; H or OH if unused. Where a SMILES comes first, the peptide text is derived from it. Bridges are numbered along the chain shown (N, C = ends). [ ]: non-standard residue; d: D form. The star is where a group is joined. hPhe(3-Cl-4-CF3) = N[C@@H](CCc1ccc(C(F)(F)F)c(Cl)c1)C(=O)O; X45 = O=C([C@H](Cc1ccc(C(F)(F)F)cc1)N(CCCF)[*:1])[*:2]; X19 = CCCN([C@@H](CC1CCC(F)(F)CC1)C(=O)[*:2])[*:1]; NMeGly(cPent) = CN[C@H](C(=O)O)C1CCCC1; NMeD = CN[C@@H](CC(=O)O)C(=O)O; NMeL = CN[C@@H](CC(C)C)C(=O)O; Morpholide = C1CN(*)CCO1; NMeA = CN[C@@H](C)C(=O)O; Ac5c = NC1(C(=O)O)CCCC1; Aze = O=C(O)[C@@H]1CCN1; Sar = CNCC(=O)O
What was measured:
[1] = target: GDP-bound HRAS wild-type protein (Homo sapiens, UniProt P01112); assay: Binding to HRAS by surface plasmon resonance (SPR), Single Cycle Kinetics; settings: SPR, GDP-bound HRAS wild-type protein vs GDP-bound KRAS wild-type protein
[2] = target: GDP-bound KRAS wild-type protein (Homo sapiens, UniProt P01116); assay: Binding to KRAS by surface plasmon resonance (SPR), Single Cycle Kinetics; settings: SPR Single Cycle Kinetics, GDP-bound KRAS wild-type protein, 1:1 binding model; read-out: KRAS KD
[3] = target: GDP-bound NRAS wild-type protein (Homo sapiens, UniProt P01111); assay: Binding to NRAS by surface plasmon resonance (SPR), Single Cycle Kinetics; settings: SPR, GDP-bound NRAS wild-type protein vs GDP-bound KRAS wild-type protein
Chain of GDP-bound NRAS wild-type protein (P01111 whole entry): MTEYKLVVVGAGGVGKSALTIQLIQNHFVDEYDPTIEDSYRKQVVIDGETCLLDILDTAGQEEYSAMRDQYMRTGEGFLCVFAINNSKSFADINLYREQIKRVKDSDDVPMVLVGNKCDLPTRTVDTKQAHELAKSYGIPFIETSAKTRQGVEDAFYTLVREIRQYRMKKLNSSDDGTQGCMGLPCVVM

Chain of GDP-bound HRAS wild-type protein (P01112 whole entry): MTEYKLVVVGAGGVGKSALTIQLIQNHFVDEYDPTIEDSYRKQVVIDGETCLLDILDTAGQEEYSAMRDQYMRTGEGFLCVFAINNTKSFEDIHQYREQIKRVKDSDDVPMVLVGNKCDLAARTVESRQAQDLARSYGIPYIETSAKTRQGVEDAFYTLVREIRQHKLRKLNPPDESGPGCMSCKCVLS
Chain of GDP-bound KRAS wild-type protein (P01116 whole entry): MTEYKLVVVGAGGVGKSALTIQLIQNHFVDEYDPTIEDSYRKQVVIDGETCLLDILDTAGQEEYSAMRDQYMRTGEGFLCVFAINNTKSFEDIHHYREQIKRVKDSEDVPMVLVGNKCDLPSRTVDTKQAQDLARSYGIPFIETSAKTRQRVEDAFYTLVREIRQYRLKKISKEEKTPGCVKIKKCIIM

| SMILES | HRAS/KRAS (ratio of KD value with respect to HRAS to KD value with respect to KRAS) [1] | Kd [2] [nM] | NRAS/KRAS (ratio of KD value with respect to NRAS to KD value with respect to KRAS) [3] |
| --- | --- | --- | --- |
| CC[C@H](C)[C@@H]1NC(=O)[C@H](CC(C)C)N(C)C(=O)C[C@@H](C(=O)N2CCCCC2)N(C)C(=O)[C@H](C2CCCC2)N(C)C(=O)C2(CCCC2)NC(=O)[C@@H]2CCCN2C(=O)[C@H](CCc2cc(F)c(C(F)(F)F)c(F)c2)NC(=O)CN(C)C(=O)[C@H](Cc2ccc(C(F)(F)F)cc2)N2CCCCC[C@@H](C2=O)N(C)C(=O)CN(C)C1=O [PP0510] | B (a compound having 3 or more and less than 10 is denoted as B) | 12 | B (a compound having 3 or more and less than 10 is denoted as B) |
| CC[C@H](C)[C@@H]1NC(=O)[C@H](CC(C)C)N(C)C(=O)C[C@@H](C(=O)N(C)C)N(C)C(=O)[C@H](C2CCCC2)N(C)C(=O)C2(CCC2)NC(=O)[C@@H]2CCCN2C(=O)[C@H](CCc2cc(F)c(C(F)(F)F)c(F)c2)NC(=O)CN(C)C(=O)[C@H](Cc2ccc(C(F)(F)F)cc2)N2CCCCC[C@@H](C2=O)N(C)C(=O)CN(C)C1=O [PP0512] | B (a compound having 3 or more and less than 10 is denoted as B) | 0.37 | B (a compound having 3 or more and less than 10 is denoted as B) |
| CC[C@H](C)[C@@H]1NC(=O)[C@H](CC(C)C)N(CC)C(=O)C[C@@H](C(=O)N2CCOCC2)N(C)C(=O)[C@H](C2CCCC2)N(C)C(=O)C2(CCCC2)NC(=O)[C@@H]2CCCN2C(=O)[C@H](CCc2cc(F)c(C(F)(F)F)c(F)c2)NC(=O)CN(C)C(=O)[C@H](Cc2ccc(C(F)(F)F)cc2)N2CCCCC[C@@H](C2=O)N(C)C(=O)CN(C)C1=O [PP0513] | B (a compound having 3 or more and less than 10 is denoted as B) | 6.2 | B (a compound having 3 or more and less than 10 is denoted as B) |
| CC[C@H](C)[C@@H]1NC(=O)[C@H](CC(C)C)N(C)C(=O)C[C@@H](C(=O)N(C)C)N(C)C(=O)[C@H](C2CCCC2)N(C)C(=O)C2(CCCC2)NC(=O)[C@@H]2CCCN2C(=O)[C@H](CCc2cc(F)c(C(F)(F)F)c(F)c2)NC(=O)CN(C)C(=O)[C@H](Cc2ccc(C(F)(F)F)cc2)N2CCCCC[C@@H](C2=O)N(C)C(=O)CN(CC)C1=O [PP0514] | B (a compound having 3 or more and less than 10 is denoted as B) | 11 | B (a compound having 3 or more and less than 10 is denoted as B) |
| CC[C@H](C)[C@@H]1NC(=O)[C@H](CC(C)C)N(C)C(=O)C[C@@H](C(=O)N2CCOCC2)N(C)C(=O)[C@H](C2CCCC2)N(C)C(=O)C2(CCCC2)NC(=O)[C@H](C)N(CC)C(=O)[C@H](CCc2cc(F)c(C(F)(F)F)c(F)c2)NC(=O)CN(C)C(=O)[C@H](Cc2ccc(C(F)(F)F)cc2)N2CCCCC[C@@H](C2=O)N(C)C(=O)CN(C)C1=O [PP0515] | B (a compound having 3 or more and less than 10 is denoted as B) | 29 | B (a compound having 3 or more and less than 10 is denoted as B) |
| CC[C@H](C)[C@@H]1NC(=O)[C@H](CC(C)C)NC(=O)C[C@@H](C(=O)N2CCOCC2)N(C)C(=O)[C@H](C2CCCC2)N(C)C(=O)C2(CCCC2)NC(=O)[C@@H]2CCCN2C(=O)[C@H](CCc2cc(F)c(C(F)(F)F)c(F)c2)NC(=O)CN(C)C(=O)[C@H](Cc2ccc(C(F)(F)F)cc2)N2CCCCC[C@@H](C2=O)N(C)C(=O)CN(C)C1=O [PP0516] | B (a compound having 3 or more and less than 10 is denoted as B) | 10 | B (a compound having 3 or more and less than 10 is denoted as B) |
| CC[C@H](C)[C@@H]1NC(=O)[C@H](CC(F)(F)F)N(C)C(=O)C[C@@H](C(=O)N2CCOCC2)N(C)C(=O)[C@H](C2CCCC2)N(C)C(=O)C2(CCCC2)NC(=O)[C@@H]2CCCN2C(=O)[C@H](CCc2cc(F)c(C(F)(F)F)c(F)c2)NC(=O)CN(C)C(=O)[C@H](Cc2ccc(C(F)(F)F)cc2)N2CCCCC[C@@H](C2=O)N(C)C(=O)CN(C)C1=O [PP0520] | B (a compound having 3 or more and less than 10 is denoted as B) | 0.99 | B (a compound having 3 or more and less than 10 is denoted as B) |
| CC[C@H](C)[C@@H]1NC(=O)[C@@H]2CCCCCN2C(=O)C[C@@H](C(=O)N2CCOCC2)N(C)C(=O)[C@H](C2CCCC2)N(C)C(=O)C2(CCCC2)NC(=O)[C@@H]2CCCN2C(=O)[C@H](CCc2cc(F)c(C(F)(F)F)c(F)c2)NC(=O)CN(C)C(=O)[C@H](Cc2ccc(C(F)(F)F)cc2)N2CCCCC[C@@H](C2=O)N(C)C(=O)CN(C)C1=O [PP0521] | B (a compound having 3 or more and less than 10 is denoted as B) | 72 | B (a compound having 3 or more and less than 10 is denoted as B) |
| CC(C)C[C@H]1C(=O)N[C@@H](C2CCC2)C(=O)N(C)CC(=O)N(C)[C@H]2CCCCCN(C2=O)[C@@H](Cc2ccc(C(F)(F)F)cc2)C(=O)N(C)CC(=O)N[C@@H](CCc2cc(F)c(C(F)(F)F)c(F)c2)C(=O)N2CCC[C@H]2C(=O)NC2(CCCC2)C(=O)N(C)[C@@H](C2CCCC2)C(=O)N(C)[C@H](C(=O)N2CCOCC2)CC(=O)N1C [PP0522] | B (a compound having 3 or more and less than 10 is denoted as B) | 2.8 | B (a compound having 3 or more and less than 10 is denoted as B) |
| CCC(CC)[C@@H]1NC(=O)[C@H](CC(C)C)N(C)C(=O)C[C@@H](C(=O)N2CCOCC2)N(C)C(=O)[C@H](C2CCCC2)N(C)C(=O)C2(CCCC2)NC(=O)[C@@H]2CCCN2C(=O)[C@H](CCc2cc(F)c(C(F)(F)F)c(F)c2)NC(=O)CN(C)C(=O)[C@H](Cc2ccc(C(F)(F)F)cc2)N2CCCCC[C@@H](C2=O)N(C)C(=O)CN(C)C1=O [PP0523] | B (a compound having 3 or more and less than 10 is denoted as B) | 12 | A (a compound having 10 or more and less than 20 is denoted as A) |
| CC[C@H](C)[C@@H]1NC(=O)[C@H](CC(C)C)N(C)C(=O)C[C@@H](C(=O)N2CCOCC2)N(C)C(=O)[C@H](C2CCCC2)N(C)C(=O)C2(CCCC2)NC(=O)[C@@H]2CCCN2C(=O)[C@H](CCc2ccc(C(F)(F)F)c(Cl)c2)NC(=O)CN(C)C(=O)[C@H](Cc2ccc(C(F)(F)F)cc2)N(CCCF)C(=O)CN(C)C(=O)CN(C)C1=O [PP0524] ([NMeL]I[Sar][Sar][X45][Sar][hPhe(3-Cl-4-CF3)]P[Ac5c][NMeGly(cPent)][NMeD]-Morpholide; lactam N-11) | C (A compound having a KD ratio of 0.1 or more and less than 3 is denoted as C) | 0.11 | B (a compound having 3 or more and less than 10 is denoted as B) |
| CC[C@H](C)[C@@H]1NC(=O)[C@H](CC(C)C)N(C)C(=O)C[C@@H](C(=O)N2CCOCC2)N(C)C(=O)[C@H](C2CCCC2)N(C)C(=O)C2(CCCC2)NC(=O)[C@@H]2CCCN2C(=O)[C@H](CCc2ccc(C(F)(F)F)c(Cl)c2)NC(=O)CN(C)C(=O)[C@H](Cc2ccc(C(F)(F)F)cc2)N(CCCF)C(=O)[C@@H]2CCN2C(=O)[C@H](C)N(C)C1=O [PP0525] ([NMeL]I[NMeA][Aze][X45][Sar][hPhe(3-Cl-4-CF3)]P[Ac5c][NMeGly(cPent)][NMeD]-Morpholide; lactam N-11) | B (a compound having 3 or more and less than 10 is denoted as B) | 0.14 | C (A compound having a KD ratio of 0.1 or more and less than 3 is denoted as C) |
| CCCN1C(=O)CN(C)C(=O)CN(C)C(=O)[C@H]([C@@H](C)CC)NC(=O)[C@H](CC(C)C)N(C)C(=O)C[C@@H](C(=O)N2CCOCC2)N(C)C(=O)[C@H](C2CCCC2)N(C)C(=O)C2(CCCC2)NC(=O)[C@@H]2CCCN2C(=O)[C@H](CCc2ccc(C(F)(F)F)c(Cl)c2)NC(=O)CN(C)C(=O)[C@@H]1CC1CCC(F)(F)CC1 [PP0526] ([NMeL]I[Sar][Sar][X19][Sar][hPhe(3-Cl-4-CF3)]P[Ac5c][NMeGly(cPent)][NMeD]-Morpholide; lactam N-11) | C (A compound having a KD ratio of 0.1 or more and less than 3 is denoted as C) | 0.074 | B (a compound having 3 or more and less than 10 is denoted as B) |
